Source: paper PMC4803471 (Anesthesiology, 2016)
Where two headings read alike, the source gives them in different places.

Experiments:
Sprague-Dawley rats [1] = conditions: previously published value; cited from earlier work
[2] = previously published value; cited from earlier work
[3] = Octanol:water partition coefficient determination; assay type: physicochemical; conditions: mean ± SD
[4] = molecular target: α1(L264T)β3γ2 GABAA receptors (Homo sapiens, UniProt P14867+P28472, L291T); assay type: cell-based; conditions: for Peak amplitude of evoked current: representative trace, single oocyte
α1(L264T)β3γ2 GABAA receptors, sequence (P14867 28-456 L291T): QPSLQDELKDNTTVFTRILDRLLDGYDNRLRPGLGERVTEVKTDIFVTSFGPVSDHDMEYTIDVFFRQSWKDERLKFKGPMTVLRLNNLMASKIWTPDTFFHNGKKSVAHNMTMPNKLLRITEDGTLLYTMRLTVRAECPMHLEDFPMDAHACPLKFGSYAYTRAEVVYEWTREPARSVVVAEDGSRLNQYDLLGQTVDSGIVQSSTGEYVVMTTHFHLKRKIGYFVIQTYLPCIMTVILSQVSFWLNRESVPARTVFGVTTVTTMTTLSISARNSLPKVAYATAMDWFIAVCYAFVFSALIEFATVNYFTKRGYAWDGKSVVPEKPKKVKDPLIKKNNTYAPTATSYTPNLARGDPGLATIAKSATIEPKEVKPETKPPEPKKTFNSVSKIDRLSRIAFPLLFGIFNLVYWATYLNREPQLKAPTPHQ
α1(L264T)β3γ2 GABAA receptors, sequence (P28472 26-473): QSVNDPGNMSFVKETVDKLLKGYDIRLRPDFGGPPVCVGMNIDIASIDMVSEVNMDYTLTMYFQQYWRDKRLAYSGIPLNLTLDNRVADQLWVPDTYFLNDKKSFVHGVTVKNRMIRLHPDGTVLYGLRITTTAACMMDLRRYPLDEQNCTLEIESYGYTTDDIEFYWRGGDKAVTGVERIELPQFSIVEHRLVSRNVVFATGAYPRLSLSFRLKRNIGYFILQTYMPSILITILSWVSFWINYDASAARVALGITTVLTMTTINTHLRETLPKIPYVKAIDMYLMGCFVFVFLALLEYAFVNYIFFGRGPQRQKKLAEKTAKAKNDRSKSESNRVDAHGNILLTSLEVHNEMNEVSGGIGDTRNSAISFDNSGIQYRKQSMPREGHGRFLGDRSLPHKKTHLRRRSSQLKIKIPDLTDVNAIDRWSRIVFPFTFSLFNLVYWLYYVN
α1(L264T)β3γ2 GABAA receptors, sequence (P18507 40-475 partner): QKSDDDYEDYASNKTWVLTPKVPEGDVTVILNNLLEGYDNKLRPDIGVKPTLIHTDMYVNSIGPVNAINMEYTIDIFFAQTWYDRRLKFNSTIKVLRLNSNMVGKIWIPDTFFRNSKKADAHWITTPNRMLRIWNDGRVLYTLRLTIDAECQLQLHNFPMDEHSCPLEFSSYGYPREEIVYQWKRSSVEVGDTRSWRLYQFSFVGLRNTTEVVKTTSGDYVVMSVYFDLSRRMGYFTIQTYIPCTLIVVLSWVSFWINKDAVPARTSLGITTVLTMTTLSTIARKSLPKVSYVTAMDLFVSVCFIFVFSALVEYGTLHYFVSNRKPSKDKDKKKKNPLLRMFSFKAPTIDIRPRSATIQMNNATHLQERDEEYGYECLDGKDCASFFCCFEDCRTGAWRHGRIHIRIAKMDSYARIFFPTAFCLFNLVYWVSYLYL

Sprague-Dawley rats [5] = test: Rat loss of righting reflexes; conditions: intravenous, dose producing LORR in 50% of rats

Row | Compound | Hypnotic ED50 (loss of righting reflexes) (Sprague-Dawley rats [1]) | Octanol:Buffer Partition Coefficient [2] | other results
1 | Cyclopropyl methoxycarbonyl metomidate [Compound 15] | 0.69 ± 0.04 (19) mg/kg | 420 ± 11 (19) | –
2 | CCOC(=O)c1cncn1[C@H](C)c1ccccc1 [Compound 1, Etomidate, reference compound] | 0.47 ± 0.17 (13) mg/kg | 731 ± 72 (13) | –
3 | COC(=O)COC(=O)c1cncn1[C@H](C)c1ccccc1 [Compound 11, Methoxycarbonyl metomidate] | 11.1 ± 0.8 (19) mg/kg | 159 ± 15 (19) | –
4 | COC(=O)[C@@H](C)OC(=O)c1cncn1[C@H](C)c1ccccc1 [Compound 13, R-methyl-methoxycarbonyl metomidate] | 9.6 ± 1.9 (19) mg/kg | 380 ± 15 (19) | –
5 | CCOC(=O)c1cncn1Cc1ccccc1 [Compound 4, Dihydrogen etomidate] | 5.2 ± 1 (13) mg/kg | 388 ± 32 (13) | –
6 | COC(=O)c1cncn1C(C)c1ccccc1 (centres unmarked) [Compound 2, Metomidate, reference compound] | – | – | Octanol:Buffer Partition Coefficient [3]: 380 ± 48; EC50 [4]: 4.4 ± 0.7 µM
7 | COC(=O)[C@@H](C)COC(=O)c1cncn1[C@H](C)c1ccccc1 [Compound 19, α-(S)-methyl methoxycarbonyl etomidate] | 3.1 ± 0.4 (19) mg/kg | 530 ± 170 (19) | –
8 | CCOC(=O)c1cncn1[C@@H](C)c1ccccc1 [Compound 3, S-etomidate] | 5.2 ± 0.9 (13) mg/kg | 711 ± 90 (13) | –
9 | COC(=O)CCOC(=O)c1cncn1[C@H](c1ccccc1)C(C)C [Compound 16, (S)-isopropyl-methoxycarbonyl metomidate] | 1.2 ± 0.2 (19) mg/kg | 2,860 ± 67 (19) | Peak amplitude of evoked current ([4]; 1 μM): 0.29 μA; Peak amplitude of evoked current ([4]; 10 μM): 0.90 μA
10 | COC(=O)C[C@@H](C)OC(=O)c1cncn1[C@H](C)c1ccccc1 [Compound 22, β-(R)-methyl-methoxycarbonyl etomidate] | 3.5 ± 0.6 (19) mg/kg | 500 ± 24 (19) | –
11 | S-pentafluoroetomidate [Compound 9] | – | – | Octanol:Buffer Partition Coefficient [3]: 880 ± 220; Hypnotic ED50 (loss of righting reflexes) (Sprague-Dawley rats [5]): 11.1 ± 0.8 mg/kg; EC50 of S-enantiomer relative to racemic mixture ([4]; fold higher EC50): 22 fold
12 | COC(=O)CC(C)(C)OC(=O)c1cncn1C(C)c1ccccc1 (stereo not drawn) [Compound 23, β-Dimethyl-methoxycarbonyl etomidate] | 1.9 ± 0.3 (19) mg/kg | 1,580 ± 40 (19) | –
13 | COC(=O)C(C)(C)COC(=O)c1cncn1[C@H](C)c1ccccc1 [Compound 21, α-Dimethyl-methoxycarbonyl etomidate] | 2.4 ± 1 (19) mg/kg | 2,240 ± 150 (19) | –
14 | COC(=O)[C@H](C)OC(=O)c1cncn1[C@H](C)c1ccccc1 [Compound 12, S-methyl-methoxycarbonyl metomidate] | 3.5 ± 0.4 (19) mg/kg | 330 ± 16 (19) | –
15 | Racemic pentafluoroetomidate [Compound 8] | – | – | Octanol:Buffer Partition Coefficient [3]: 860 ± 260; Hypnotic ED50 (loss of righting reflexes) (Sprague-Dawley rats [5]): 1.7 ± 0.4 mg/kg
16 | COC(=O)[C@H](C)COC(=O)c1cncn1[C@H](C)c1ccccc1 [Compound 20, α-(R)-methyl-methoxycarbonyl etomidate] | 5.2 ± 0.5 (19) mg/kg | 670 ± 120 (19) | –
17 | 4-Pyridine carboetomidate [Compound 7] | – | – | Hypnotic ED50 (loss of righting reflexes) (Sprague-Dawley rats [5]): 25.0 ± 0.3 mg/kg
18 | COC(=O)C(C)(C)OC(=O)c1cncn1[C@H](C)c1ccccc1 [Compound 14, Dimethyl-methoxycarbonyl metomidate] | 0.72 ± 0.16 (19) mg/kg | 660 ± 110 (19) | –
19 | CCOC(=O)c1cncn1C1(c2ccccc2)CC1 [Compound 5, Cyclopropyletomidate] | 5.2 ± 0.7 (13) mg/kg | 458 ± 45 (13) | –
20 | COC(=O)CCOC(=O)c1cncn1[C@H](C)c1ccccc1 [Compound 18, Methoxycarbonyl etomidate] | 5.3 ± 1.5 (19) mg/kg | 190 ± 25 (19) | –
21 | COC(=O)CCOC(=O)c1cncn1[C@@H](c1ccccc1)C(C)C [Compound 17, (R)-isopropyl-methoxycarbonyl metomidate] | 3.6 ± 0.8 (19) mg/kg | 3,830 ± 310 (19) | Peak amplitude of evoked current ([4]; 1 μM): 0.041 μA
22 | CCOC(=O)c1cccn1[C@H](C)c1ccccc1 [Compound 6, Carboetomidate] | 7.7 ± 0.8 (18) mg/kg | 15,000 ± 3,700 (20) | Potency relative to 4-pyridine carboetomidate ([4]; fold higher GABAA receptor potency): 24 fold; GABAA receptors activated at the highest concentration studied (at most) ([4]; normalized to 100 μM GABA, limited by aqueous solubility): ≤ 68 ± 6%; Potency for directly activating GABAA receptors relative to etomidate ([4]; ratio of EC50s): approximately 1/8
